One data set deals with HepG2 cells. Kind of data set: Cytotoxicity experiment (MTS) of polymer and anti-cancer drug on HepG2 cells. Type of data set: cell-based, human. The note with it: for viability at 4 µg/mL / viability at 5 µg/mL: Homo sapiens; for viability at 5 µg/mL: read-out: Cell Viability (%) Taxol. The protocol: (§1) A suspension of HepG2 cells diluted in 100 μL of a complete medium (a RPMI-1640 medium containing 10% fetal bovine serum and 1% penneillin/streptomycin) was added into a 96-well plate at a concentration of 5×10^3 cells per well, cultivated at 37 degrees Celsius for 24 hours. […] The solution was then aspirated, added with 100 μL of fresh complete medium and incubated continually for 24 hours. The culture medium was aspirated, added with 80 μL PBS solution and 20 μL cell proliferation reagent MTS, incubated at 37 degrees Celsius for 1 hour, and then measured with a microplate reader at 490 nm for absorbance.
This embodiment is an in vitro cell experiment of the effect of a polyallylamine-2,3-dimethyl maleic anhydride modifier with a molecular weight of 15,000 (PAA15K-DMA) for promoting the toxicity of different chemotherapeutic drugs on non-resistant HepG2 cells. According to the method described in Embodiment 4, the concentration of PAA15K-DMA was 25 μg/mL, and the obtained data was shown in Table 1.
This embodiment is an in vitro cell experiment of the effect of a polyallylamine-cyclohexene-1,2-dicarboxylic acid modifier with a molecular weight of 200,000 (PAA200K-TPA) for promoting the toxicity of different chemotherapeutic drugs on non-resistant HepG2 cells. According to the method described in Embodiment 4, the concentration of PAA200K-TPA was 25 μg/mL, and the obtained data was shown in Table 1 and FIG. 1.
as §1, with “804” for “80 μL”
This embodiment is an in vitro cell experiment of the effect of a linear polyethylenimine-cyclohexene-1,2-dicarboxylic acid modifier with a molecular weight of 10,000 (LPEI10K-TPA) for promoting the toxicity of different chemotherapeutic drugs on non-resistant HepG2 cells. According to the method described in Embodiment 10, the concentration of LPEI10K-TPA was 15 μg/mL, and the obtained data was shown in Table 1.
This embodiment is an in vitro cell experiment of the effect of a branched polyethyleneimine-1-methyl maleic anhydride modifier with a molecular weight of 25,000 (BPEI25K-CA) for promoting the toxicity of different chemotherapeutic drugs on non-resistant HepG2 cells. According to the method described in Embodiment 10, the concentration of BPEI25K-CA was 15 μg/mL, and the obtained data was shown in Table 1.
This embodiment is an in vitro cell experiment of the effect of a 3rd-generation dendritic polypropyleneimine-3-carboxy-2-pentenedioic acid modifier (G3 PPI-AA) for promoting the toxicity of different chemotherapeutic drugs on non-resistant HepG2 cells. According to the method described in Embodiment 10, the concentration of G3 PPI-AA was 20 μg/mL, and the obtained data was shown in Table 1.
This embodiment is an in vitro cell experiment of the effect of a 3rd-generation dendritic polypropyleneimine-2,3-dimethyl maleic anhydride modifier (G3 PPI-DMA) for promoting the toxicity of different chemotherapeutic drugs on non-resistant HepG2 cells. According to the method described in Embodiment 10, the concentration of G3 PPI-DMA was 20 μg/mL, and the obtained data was shown in Table 1 and FIG. 3.
This embodiment is an in vitro cell experiment of the effect of a branched polylysine-cyclohexene-1,2-dicarboxylic acid modifier having a molecular weight of 2,000 (BPLys2K-TPA) for promoting the toxicity of different chemotherapeutic drugs on non-resistant HepG2 cells. […]

Another data set relates to HepG2/ADR cells. Description: Cytotoxicity experiment (MTS) of polymer and anti-cancer drug on HepG2/ADR cells. It counts as cell-based. The note with it: Homo sapiens, read-out: Cell Viability (%) Taxol. The protocol:
as §1, with “HepG2/ADR” for “HepG2”, “2 hours,” for “1 hour,”
as §1, with “suspension of HepG2/ADR cells diluted” for “suspension of HepG2 cells diluted”, “in 100 IA of a” for “in 100 μL of a”, “Celsius for 2 hours, and then” for “Celsius for 1 hour, and then”, “for absorbance. […]” for “for absorbance.”

Where [1] appears, read: HepG2, pH = 6.5, 5 μg/mL taxol alone (control).
The mark [2] stands for this setting: HepG2, pH = 7.4, 5 μg/mL taxol alone (control).

Where “and” joins values, the source holds several entries; their conditions need not be identical. Equal values may be shown once. Read-outs that look alike come from different tables or passages of the source.

Take `COc1cccc2c1C(=O)c1c(O)c3c(c(O)c1C2=O)C[C@@](O)(C(=O)CO)C[C@@H]3O[C@H]1C[C@H](N)[C@H](O)[C@H](C)O1` [Doxorubicin, doxorubicin]: the viability at 4 µg/mL came to 77% in the data set with HepG2 cells (HepG2, read-out: Cell Viability (%) Doxorubicin, pH = 6.5, 4 μg/mL doxorubicin alone (control)) and 72.9% in the data set with HepG2 cells (HepG2, read-out: Cell Viability (%) Doxorubicin, pH = 7.4, 4 μg/mL doxorubicin alone (control)). The “Cell Viability (%) Doxorubicin” value in the data set on HepG2 cells (pH = 6.5, 4 μg/mL doxorubicin alone (control)) was 78.59% and 77.13%; in the data set on HepG2 cells (pH = 7.4, 4 μg/mL doxorubicin alone (control)) it was 70.75% and 73.82%.
`CC(=O)O[C@H]1C(=O)[C@@]2(C)[C@H]([C@H](OC(=O)c3ccccc3)[C@]3(O)C[C@H](OC(=O)[C@H](O)[C@@H](NC(=O)c4ccccc4)c4ccccc4)C(C)=C1C3(C)C)[C@]1(OC(C)=O)CO[C@@H]1C[C@@H]2O` [Taxol, taxol]: the viability at 5 µg/mL in the data set with HepG2/ADR cells (setting [1]) came to 84.5%; in the data set with HepG2/ADR cells (setting [2]) it was 89.2%; in the data set with HepG2 cells (setting [1]) it was 80.3%; with HepG2 cells (setting [2]), 83.1%. The “Cell Viability (%) Taxol” value in the data set on HepG2 cells (pH = 6.5, 5 μg/mL taxol alone (control)) was 78.66% and 76.08%; with HepG2 cells (pH = 7.4, 5 μg/mL taxol alone (control)) it was 82.38% and 80.61%.
